Legend:
[1] = tested on: HCT116 cells; assay: Calculated oxaliplatin IC50 in parental HCT116 cells; conditions: read-out: calculated IC50
[2] = tested on: oxaliplatin resistance HCT116 cells; assay: Calculated oxaliplatin IC50 in oxaliplatin resistant HCT116 cells; conditions: read-out: calculated IC50; HCT116 cells rendered oxaliplatin resistant by stepwise increasing oxaliplatin over 16 passages

## O=C1[O][Pt]2([NH][C@@H]3CCCC[C@H]3[NH]2)[O]C1=O [oxaliplatin]
[1]
  IC50: 0.35 µM
[2]
  IC50: 5 µM
